Measured values published in patent US20250122155A1, “NOVEL INDOLE DERIVATIVE, PHARMACEUTICAL COMPOSITION COMPRISING SAME, AND USE THEREOF” (MITOIMMUNE THERAPEUTICS INC., priority 2021, published 2025).

Legend:
NRK-49F cells = test: Cell death protective effect in renal fibroblasts against Erastin, glutamate and RSL3 (LDH); type: cell-based, rat; settings: 24 hours
Protocol: (§1) In order to identify the protective effect on renal fibroblasts, NRK-49F cells were divided into 96-well plates by 1×10^4 and cultured for 18 to 24 hours. The compounds of Examples were diluted to final concentrations of 0.1 and 1 μM, treated in each well, and incubated for 15 to 20 minutes. Erastin, glutamate, and RSL3 were treated to have final concentrations of 3 μM, 75 mM, and 3 μM, respectively, and cultured for 24 hours. In order to identify the protective effect of each compound, the degree of LDH extracellular secretion was measured using cytotoxicity LDH assay kit [Dojindo; CK12]. Briefly, at the time when the treatment of the cells with Erastin, glutamate, and RSL3 for 24 hours is completed, the supernatants containing the cells are taken by 70 μl and transferred to a new 96-well plate. The assay buffer included in the kit is added in an amount of 70 μL/well (the same amount as the sample) thereto, and then the plate is wrapped with a foil and the reaction is performed at room temperature for 15 minutes.

H9C2 cells [1] = test: Protective effect on heart cells against t-BHP (LDH release); type: cell-based; settings: H9C2, t-BHP 400 μM, 2 hours, read-out: EC50 (μM), Cell Protection Effect against t-BHP in Heart Cells
How it was run: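 H9C2 cells (1.5×10^4/well, cultured 24 h) were pretreated 15–20 min with compound at 0.01–30 μM final, then exposed 2 h to 400 μM t-BHP. LDH in supernatant was measured colorimetrically at 490 nm after 30 min room-temperature reaction; EC50 derived from protection.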

H9C2 cells [2] = test: Cell death protective effect in cardiac myocytes against Erastin, glutamate and RSL3 (LDH); type: cell-based, rat; settings: 24 hours
Protocol: as §1, with “on cardiac cells, H9C2” for “on renal fibroblasts, NRK-49F”, “of 1” for “of 3”, “μM, 25” for “μM, 75”, “and 0.5” for “and 3”, “70 μL” for “70 μl”

PC-12 cells = test: Cell death protective effect in adrenal cells against Erastin, glutamate and RSL3 (LDH); type: cell-based, rat; settings: 24 hours
Protocol: In order to identify the protective effect on adrenal cells, PC-12 cells were divided into 96-well plates by 1×10^4 and cultured for 18 to 24 hours. The compounds of Examples were diluted to final concentrations of 0.1 and 1.0 μM in Erastin, 0.01 and 0.1 in glutamate, and 0.3 and 3.0 μM in RSL3, treated in each well, and incubated for 15 to 20 minutes. Erastin, glutamate, and RSL3 were treated to have final concentrations of 1 μM, 10 mM, and 0.3 μM, respectively, and cultured for 24 hours. In order to identify the protective effect of each compound, the degree of LDH extracellular secretion was measured using cytotoxicity LDH assay kit [Dojindo; CK12]. Briefly, at the time when the treatment of the cells with Erastin, glutamate, and RSL3 for 24 hours is completed, the supernatants containing the cells are taken by 70 μL and transferred to a new 96-well plate. The assay buffer included in the kit is added in an amount of 70 μL/well (the same amount as the sample) thereto, and then the plate is wrapped with a foil and the reaction is performed at room temperature for 15 minutes. After observing the changed color of the sample, the stop solution was added in an amount of 35 µL/well thereto, and then the 0 inhibition value was calculated by measuring the absorbance value at a wavelength of 490 nm using an iD3 spectrophotometer.

ARPE-19 cells = test: Cell death protective effect in retinal epithelial cells against Erastin and RSL3 (LDH); type: cell-based, human; settings: 24 hours
Protocol: In order to identify the protective effect on retinal epithelial cells, ARPE-19 cells were divided into 96-well plates by 1×10^4 and cultured for 18 to 24 hours. The compounds of Examples were diluted to final concentrations of 0.03 and 0.3 μM, treated in each well, and incubated for 20 minutes. Erastin, and RSL3 were treated to have final concentrations of 10 μM, and 0.3 μM, respectively, and cultured for 24 hours. In order to identify the protective effect of each compound, the degree of LDH extracellular secretion was measured using cytotoxicity LDH assay kit [Dojindo; CK12]. Briefly, at the time when the treatment of the cells with Erastin, and RSL3 for 24 hours is completed, the supernatants containing the cells are taken by 70 μL and transferred to a new 96-well plate. The assay buffer included in the kit is added in an amount of 70 μL/well (the same amount as the sample) thereto, and then the plate is wrapped with a foil and the reaction is performed at room temperature for 15 minutes.

[3] = Glutamate 75 mM, compound 0.1 μM
[4] = Glutamate 75 mM, compound 1.0 μM
[5] = H9C2, Erastin 1 μM, compound 0.1 μM
[6] = H9C2, Erastin 1 μM, compound 1.0 μM
[7] = H9C2, Glutamate 25 mM, compound 0.1 μM
[8] = H9C2, Glutamate 25 mM, compound 1.0 μM
[9] = H9C2, RSL3 0.5 μM, compound 0.1 μM
[10] = H9C2, RSL3 0.5 μM, compound 1.0 μM
[11] = PC-12, Erastin 1 μM, compound 0.1 μM
[12] = PC-12, Erastin 1 μM, compound 1.0 μM
[13] = PC-12, Glutamate 10 mM, compound 0.01 μM
[14] = PC-12, Glutamate 10 mM, compound 0.1 μM
[15] = PC-12, RSL3 0.3 μM, compound 0.3 μM
[16] = PC-12, RSL3 0.3 μM, compound 3.0 μM
[17] = ARPE-19, Erastin 10 μM, compound 0.03 μM
[18] = ARPE-19, Erastin 10 μM, compound 0.3 μM
[19] = ARPE-19, RSL3 0.3 μM, compound 0.03 μM
[20] = ARPE-19, RSL3 0.3 μM, compound 0.3 μM

Row | Structure (SMILES) | inhibition (%) (NRK-49F cells; Erastin 3 μM, compound 0.1 μM) | inhibition (%) (NRK-49F cells; Erastin 3 μM, compound 1.0 μM) | inhibition (%) (NRK-49F cells; [3]) | inhibition (%) (NRK-49F cells; [4]) | inhibition (%) (NRK-49F cells; RSL3 3 μM, compound 0.1 μM) | inhibition (%) (NRK-49F cells; RSL3 3 μM, compound 1.0 μM) | inhibition (%) (H9C2 cells [2]; [5]) | inhibition (%) (H9C2 cells [2]; [6]) | inhibition (%) (H9C2 cells [2]; [7]) | inhibition (%) (H9C2 cells [2]; [8]) | inhibition (%) (H9C2 cells [2]; [9]) | inhibition (%) (H9C2 cells [2]; [10]) | inhibition (%) (PC-12 cells; [11]) | inhibition (%) (PC-12 cells; [12]) | inhibition (%) (PC-12 cells; [13]) | inhibition (%) (PC-12 cells; [14]) | inhibition (%) (PC-12 cells; [15]) | inhibition (%) (PC-12 cells; [16]) | inhibition (%) (ARPE-19 cells; [17]) | inhibition (%) (ARPE-19 cells; [18]) | also measured
1 | COCCOCc1cc(NC2CCOCC2)c2[nH]c(-c3ccccc3)cc2c1 [Example 1, 5-(2-methoxyethoxymethyl)-2-phenyl-N-tetrahydropyran-4-yl-1H-indol-7-amine] | 99 | 99 | 100 | 100 | 99 | 99 | 100 | 100 | 96 | 97 | 100 | 98 | 100 | 100 | 53 | 98 | 100 | 100 | 100 | 100 | EC50 (H9C2 cells [1]): ≤ 0.3 µM; inhibition (%) (ARPE-19 cells; [19]): 95%; inhibition (%) (ARPE-19 cells; [20]): 100%
2 | COCCOCc1cc(NCC2CCOCC2)c2[nH]c(-c3ccccc3)cc2c1 [Example 4, 5-2(methoxyethoxymethyl)-2-phenyl-N-(tetrahydropyran-4-ylmethyl)-1H-indol-7-amine] | 99 | 99 | 99 | 100 | 98 | 99 | 100 | 100 | 97 | 96 | 97 | 96 | 100 | 100 | 53 | 96 | 100 | 100 | 100 | 100 | EC50 (H9C2 cells [1]): ≤ 0.3 µM; inhibition (%) (ARPE-19 cells; [19]): 100%; inhibition (%) (ARPE-19 cells; [20]): 100%
3 | COCCOCc1cc(NC2CCN(C(C)=O)CC2)c2[nH]c(-c3ccccc3)cc2c1 [Example 30, 1-[4-[[5-(2-methoxyethoxymethyl)-2-phenyl-1H-indol-7-yl]amino]piperidyl]-1-ethanone] | 98 | 98 | 97 | 100 | 52 | 98 | 0 | 100 | 90 | 98 | 0 | 96 | 86 | 100 | 33 | 95 | 100 | 100 | 80 | 100 | EC50 (H9C2 cells [1]): ≤ 0.3 µM; inhibition (%) (ARPE-19 cells; [19]): 60%; inhibition (%) (ARPE-19 cells; [20]): 100%
4 | CCOCCOCc1cc(NC2CCCC2)c2[nH]c(-c3ccccc3)cc2c1 [Example 36, N-cyclopentyl-5-(2-ethoxyethoxymethyl)-2-phenyl-1H-indol-7-amine] | 99 | 99 | 100 | 100 | 98 | 99 | 100 | 100 | 99 | 97 | 98 | 99 | 100 | 100 | 61 | 95 | 100 | 100 | 98 | 100 | EC50 (H9C2 cells [1]): ≤ 0.3 µM; inhibition (%) (ARPE-19 cells; [19]): 100%; inhibition (%) (ARPE-19 cells; [20]): 100%
5 | COCCOCCOCc1cc(NC2CCCC2)c2[nH]c(-c3ccccc3)cc2c1 [Example 39, N-cyclopentyl-5-[2-(2-methoxyethoxy)ethoxymethyl]-2-phenyl-1H-indol-7-amine] | 99 | 98 | 100 | 100 | 98 | 99 | 100 | 100 | 96 | 96 | 96 | 96 | 100 | 100 | 52 | 97 | 100 | 100 | 100 | 100 | EC50 (H9C2 cells [1]): ≤ 0.3 µM; inhibition (%) (ARPE-19 cells; [19]): 100%; inhibition (%) (ARPE-19 cells; [20]): 100%
6 | CCOC(=O)c1ccc(NC2CCCCC2)c(N)c1 [Ferrostatin-1, reference compound] | 99 | 98 | 95 | 100 | 94 | 99 | 100 | 100 | 98 | 97 | 96 | 96 | 100 | 100 | 35 | 98 | 100 | 100 | 86 | 100 | inhibition (%) (ARPE-19 cells; [19]): 61%; inhibition (%) (ARPE-19 cells; [20]): 100%
